Laboratory results taken from patent publication US20230235378A1, “LZHEIMER'S DISEASE-SPECIFIC ALTERATIONS OF PROTEIN KINASE C EPSILON (PKC-EPSILON PROTEIN LEVELS” (WEST VIRGINIA UNIVERSITY BOARD OF GOVERNORS ON BEHALF OF …, priority 2010, published 2023).

Experiments:
[1] = test system: PKC; assay: Sustained PKC activation in primary neurons; type: cell-based, rat; details: sustained activation only observed in primary neurons
Method: Cell Culture. Rat hippocampal H19-7/IGF-IR cells (ATCC, Manassas, Va.) were plated onto poly-L-lysine coated plates and grown at 35° C. in DMEM/10% FCS for several days until about 50% coverage was obtained. The cells were then induced to differentiate into a neuronal phenotype by replacing the medium with 5 ml N2 medium containing 10 ng/ml basic fibroblast growth factor at 39° C. and grown in T-75 flasks at 37° C. Human SH-SY5Y neuroblastoma cells (ATCC) were cultured in 45% F 12K/45% MEM/10% FCS. Mouse N2A neuroblastoma cells were cultured in DMEM/10% FCS without glutamine. Rat hippocampal neurons from 18-day-old embryonic
Sprague Dawley rat brains were plated on 12- or 96-well plates coated with poly-D-lysine (Sigma-Aldrich, St. Louis, Mo.) in B-27 neurobasal medium containing 0.5 mM glutamine and 25 μM glutamate (Invitrogen, Carlsbad, Calif.) and cultured for three days in the medium without glutamate. […]
Protein Kinase C Assay. […] 0.5 μCi [γ-32P]ATP was added and 32P-phosphoprotein formation was measured by adsorption onto phosphocellulose as described previously. […] For measurements of activation by BR-101 (DCP-LA) and similar compounds, PKC activity was measured in the absence of diacylglycerol and phosphatidylserine, as described by Kanno et al., and PKC δ, ε, η, and were measured in the absence of added EGTA and CaCl2, as described by Kanno et al., J. Lipid Res. 2006; 47: 1146-50. […]

[2] = test system: Endothelin-converting enzyme (ECE); assay: ECE assay in neuroblastoma cells (fluorimetric, McaBK2); type: cell-based, human; details: bryostatin 0.27 nM, BR-101 1 μM, BR-111 1
Method: ECE Assay. SH-5757 neuroblastoma cells were incubated with bryostatin (0.27 nM), BR-101 (DCP-LA) (1 μM), and BR-111 (DHA-CP6) (1 Endothelin-converting enzyme (ECE) was measured fluorimetrically using the method of Johnson and Ahn, Anal. Biochem. 2000; 286: 112-118. A sample of cell homogenate (20 μl) was incubated in 50 mM MES-KOH, pH 6.0, 0.01% C 12E10 (polyoxyethylene-10-lauryl ether), and 15 μM McaBK2 (7-Methoxycoumarin-4-acetyl [Ala7-(2,4-Dinitrophenyl)Lys9]-bradykinin trifluoroacetate salt) (Sigma-Aldrich). After 60 min at 37° C., the reaction was quenched by adding trifluoroacetic acid to 0.5%. The sample was diluted to 1.4 ml with water and the fluorescence was measured at ex=334 nm, em=398 nm.

[3] = Cell viability assay (alamar Blue and CyQuant staining); type: cell-based
Method: Aß Measurement and Cell Viability Assay. Aß was measured using an Aß 1-42 human fluorimetric ELISA kit (Invitrogen) according to the manufacturer's instructions. Results were measured in a Biotek Synergy HT microplate reader. AlamarBlue and CyQuant NF (Invitrogen) according to the manufacturer's instructions.

[4] = test system: TACE; assay: TACE assay in cell homogenates of neuronal cells; type: cell-based; details: human SH-SY5Y, N2a mouse neuroblastoma cells, primary neurons from rat hippocampus
Method: TACE Assay. TACE was measured by incubating 5 μl cell homogenate, 3 μl buffer (50 mM Tris-HCl 7.4 plus 25 mM NaCl plus 4% glycerol), and 1 μl of 100 μM TACE substrate IV (Aβz-LAQAVRSSSR-DPa) (Calbiochem) for 20 min at 37° in 1.5-ml polypropylene centrifuge tubes (Jin et al., Anal. Biochem. 2002; 302: 269-75). The reaction was stopped by cooling to 4° C. The samples were diluted to 1 ml and the fluorescence was rapidly measured (ex=320 nm, em=420 nm) in a Spex Fluorolog 2 spectrofluorometer.
Buxbaum et al., J. Biol. Chem. 1998; 273: 27765-67; Etcheberrigaray et al., Proc. Natl. Acad. Sci. USA. 2006: 103:8215-20. However, many of these earlier studies were carried out in fibroblasts and other non-neuronal cell types, which appear to respond differently to PKC activators than neurons.

## CCCCCC1CC1CC1CC1CCCCCCCC(=O)O (stereo not shown) [BR-101, 8-[2-(2-pentyl-cyclopropylmethyl)-cyclopropyl]-octanoic acid]
[1]
  duration of PKC elevation: remained elevated for at least four hours
[2]
  change in ECE activity: sustained increase
[3]
  effect on cell survival or proliferation: no effect
[4]
  change in TACE activity: only produced small increases
